Source: ChEMBL document CHEMBL3431459, “Roche carnitine palmitoyltransferase modulator screening data (supplementary data associated with the publication CHEMBL2216752)”
Converted amounts (≈) assume the structure as drawn.

Columns and labels:
[1] = SUPPLEMENTARY: Lyophilisation Solubility Assay (LYSA); assay type: physicochemical; conditions: read-out: Kinetic_solubility
[2] = target: T1, Carnitine O-palmitoyltransferase 1, muscle isoform (Homo sapiens, UniProt Q92523); experiment: SUPPLEMENTARY: Inhibition of Carnitine palmitoyltransferase 1, muscle isoform; parameters: species or system Muscle tissue
T1 sequence (Q92523 whole entry): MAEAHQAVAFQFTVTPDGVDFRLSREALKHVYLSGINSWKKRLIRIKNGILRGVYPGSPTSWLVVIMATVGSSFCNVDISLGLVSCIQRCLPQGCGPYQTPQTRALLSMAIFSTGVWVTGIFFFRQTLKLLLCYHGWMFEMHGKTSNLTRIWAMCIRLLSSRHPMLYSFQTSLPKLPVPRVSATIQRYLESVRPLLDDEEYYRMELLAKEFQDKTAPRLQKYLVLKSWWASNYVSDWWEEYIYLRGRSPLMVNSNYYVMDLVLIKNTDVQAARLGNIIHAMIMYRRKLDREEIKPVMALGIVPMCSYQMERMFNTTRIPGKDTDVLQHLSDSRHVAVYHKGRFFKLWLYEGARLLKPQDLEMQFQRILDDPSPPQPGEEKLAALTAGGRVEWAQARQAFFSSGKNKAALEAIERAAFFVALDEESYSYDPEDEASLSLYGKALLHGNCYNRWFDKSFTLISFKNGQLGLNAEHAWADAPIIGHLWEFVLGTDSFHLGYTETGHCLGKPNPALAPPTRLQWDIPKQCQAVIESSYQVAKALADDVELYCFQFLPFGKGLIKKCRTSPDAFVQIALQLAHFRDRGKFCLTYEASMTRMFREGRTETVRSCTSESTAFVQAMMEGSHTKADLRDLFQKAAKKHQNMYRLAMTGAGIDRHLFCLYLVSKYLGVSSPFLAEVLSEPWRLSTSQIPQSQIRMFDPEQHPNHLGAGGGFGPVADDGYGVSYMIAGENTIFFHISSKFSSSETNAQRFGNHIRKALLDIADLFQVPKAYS

[3] = target: T2, Carnitine O-palmitoyltransferase 2, mitochondrial (Rattus norvegicus, UniProt P18886); experiment: (§1) SUPPLEMENTARY: Inhibition of Carnitine palmitoyltransferase 2
T2 sequence (P18886 whole entry): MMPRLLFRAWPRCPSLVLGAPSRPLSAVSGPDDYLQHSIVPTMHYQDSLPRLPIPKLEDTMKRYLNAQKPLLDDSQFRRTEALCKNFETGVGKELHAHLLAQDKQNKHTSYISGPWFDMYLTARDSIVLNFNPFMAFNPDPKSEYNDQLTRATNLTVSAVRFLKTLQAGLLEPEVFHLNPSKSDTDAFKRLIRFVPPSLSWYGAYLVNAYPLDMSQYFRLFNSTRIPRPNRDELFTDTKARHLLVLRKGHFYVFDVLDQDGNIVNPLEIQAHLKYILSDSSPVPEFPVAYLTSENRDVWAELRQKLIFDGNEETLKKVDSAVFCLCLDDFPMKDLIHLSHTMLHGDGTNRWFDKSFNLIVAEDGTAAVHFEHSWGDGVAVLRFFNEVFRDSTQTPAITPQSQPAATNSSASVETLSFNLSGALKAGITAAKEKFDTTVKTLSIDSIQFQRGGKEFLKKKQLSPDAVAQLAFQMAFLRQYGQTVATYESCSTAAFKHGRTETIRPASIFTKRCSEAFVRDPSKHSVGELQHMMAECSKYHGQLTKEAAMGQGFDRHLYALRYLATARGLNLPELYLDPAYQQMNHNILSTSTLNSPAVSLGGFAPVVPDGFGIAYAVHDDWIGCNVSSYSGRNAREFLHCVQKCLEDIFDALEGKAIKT

[4] = target: T3, Carnitine O-palmitoyltransferase 2, mitochondrial (Homo sapiens, UniProt P23786); experiment: as §1
T3 sequence (P23786 whole entry): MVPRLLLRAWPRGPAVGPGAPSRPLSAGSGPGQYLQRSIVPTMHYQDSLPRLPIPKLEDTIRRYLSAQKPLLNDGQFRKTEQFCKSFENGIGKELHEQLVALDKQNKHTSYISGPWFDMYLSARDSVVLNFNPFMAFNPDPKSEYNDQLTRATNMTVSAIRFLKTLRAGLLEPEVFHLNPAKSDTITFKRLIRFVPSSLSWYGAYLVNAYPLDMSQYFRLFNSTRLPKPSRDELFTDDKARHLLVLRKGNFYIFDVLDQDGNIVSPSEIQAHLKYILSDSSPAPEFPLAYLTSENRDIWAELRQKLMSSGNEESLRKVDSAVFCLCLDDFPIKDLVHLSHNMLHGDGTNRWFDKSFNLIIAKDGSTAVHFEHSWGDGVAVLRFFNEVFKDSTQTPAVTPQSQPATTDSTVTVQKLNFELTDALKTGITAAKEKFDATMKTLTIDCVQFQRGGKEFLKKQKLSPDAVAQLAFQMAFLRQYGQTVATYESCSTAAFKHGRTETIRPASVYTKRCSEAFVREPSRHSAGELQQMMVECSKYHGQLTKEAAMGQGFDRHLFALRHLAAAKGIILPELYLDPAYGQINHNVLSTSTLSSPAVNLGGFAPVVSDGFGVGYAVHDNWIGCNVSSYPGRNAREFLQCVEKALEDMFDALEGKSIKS

[5] = SUPPLEMENTARY: Lipophilicity (log D) Determination by high-throughput shake-flask; assay type: physicochemical; conditions: octanol/water
[6] = SUPPLEMENTARY: PAMPA permeability assay; assay type: physicochemical; conditions: read-out: Permeability
[7] = target: T4, Carnitine O-palmitoyltransferase 1, liver isoform (Rattus norvegicus, UniProt P32198); experiment: (§2) SUPPLEMENTARY: Inhibition of Carnitine palmitoyltransferase 1, liver isoform
T4 sequence (P32198 whole entry): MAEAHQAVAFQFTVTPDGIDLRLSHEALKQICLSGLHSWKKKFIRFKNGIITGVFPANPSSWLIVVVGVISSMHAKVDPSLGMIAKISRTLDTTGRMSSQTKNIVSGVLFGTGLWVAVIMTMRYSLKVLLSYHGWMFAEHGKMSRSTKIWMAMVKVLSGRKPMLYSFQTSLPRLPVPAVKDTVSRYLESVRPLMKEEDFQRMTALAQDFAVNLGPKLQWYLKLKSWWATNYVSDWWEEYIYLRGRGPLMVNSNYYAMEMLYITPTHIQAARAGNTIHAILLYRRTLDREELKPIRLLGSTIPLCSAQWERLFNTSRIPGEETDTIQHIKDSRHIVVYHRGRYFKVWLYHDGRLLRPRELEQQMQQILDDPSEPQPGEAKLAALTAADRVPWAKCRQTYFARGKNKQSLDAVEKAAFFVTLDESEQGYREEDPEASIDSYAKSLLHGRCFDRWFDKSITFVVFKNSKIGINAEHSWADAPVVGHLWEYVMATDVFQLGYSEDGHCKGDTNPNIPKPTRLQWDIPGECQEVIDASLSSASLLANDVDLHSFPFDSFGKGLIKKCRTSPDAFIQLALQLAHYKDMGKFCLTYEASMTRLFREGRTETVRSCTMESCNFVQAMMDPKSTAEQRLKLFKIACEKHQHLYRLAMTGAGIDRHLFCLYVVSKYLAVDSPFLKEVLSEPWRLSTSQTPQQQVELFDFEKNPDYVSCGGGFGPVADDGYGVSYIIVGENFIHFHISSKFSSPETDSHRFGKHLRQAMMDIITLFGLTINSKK

[8] = target: T5, Carnitine O-palmitoyltransferase 1, liver isoform (Homo sapiens, UniProt P50416); experiment: as §2
T5 sequence (P50416 whole entry): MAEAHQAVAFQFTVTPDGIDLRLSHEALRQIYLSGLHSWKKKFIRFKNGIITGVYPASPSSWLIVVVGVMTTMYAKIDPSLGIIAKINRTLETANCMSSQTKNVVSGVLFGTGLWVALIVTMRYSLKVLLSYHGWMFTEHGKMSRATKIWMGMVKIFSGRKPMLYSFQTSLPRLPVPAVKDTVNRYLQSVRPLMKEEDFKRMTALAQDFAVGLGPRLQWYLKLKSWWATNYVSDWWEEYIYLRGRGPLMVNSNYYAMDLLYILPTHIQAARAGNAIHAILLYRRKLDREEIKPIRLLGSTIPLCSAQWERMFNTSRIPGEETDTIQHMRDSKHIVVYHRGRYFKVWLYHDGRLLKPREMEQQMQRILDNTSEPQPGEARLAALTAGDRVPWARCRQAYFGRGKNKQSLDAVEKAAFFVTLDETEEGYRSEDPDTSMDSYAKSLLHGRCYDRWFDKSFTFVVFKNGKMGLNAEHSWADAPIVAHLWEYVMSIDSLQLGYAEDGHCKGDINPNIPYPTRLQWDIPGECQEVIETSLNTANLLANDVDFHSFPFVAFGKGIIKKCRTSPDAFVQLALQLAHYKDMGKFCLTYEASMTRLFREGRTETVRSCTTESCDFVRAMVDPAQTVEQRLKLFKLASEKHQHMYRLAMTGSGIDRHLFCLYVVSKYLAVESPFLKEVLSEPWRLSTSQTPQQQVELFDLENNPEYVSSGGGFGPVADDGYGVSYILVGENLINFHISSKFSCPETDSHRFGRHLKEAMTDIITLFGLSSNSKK

| SMILES | solubility kinetic [1] | IC50 [2] | IC50 [3] | IC50 [4] | logD [5] | Papp [6] | IC50 [7] | IC50 [8] |
| --- | --- | --- | --- | --- | --- | --- | --- | --- |
| O=C(COc1ccccc1)N1CCCC[C@@H]1c1nc(-c2ccc([N+](=O)[O-])o2)no1 | 6 µg/mL (≈ 15.1 µM) | > 100000 nM | 35700 nM | 9990 nM | 2.53 | 5.09 ×10⁻⁶ cm/s | 297 nM | 68.2 nM |
| O=C(COc1ccccc1)N1CCCC[C@@H]1c1nc(-c2cccc(F)c2)n[nH]1 | 23 µg/mL (≈ 60.5 µM) | > 100000 nM | > 100000 nM | > 100000 nM | 3.5 | 1.45 ×10⁻⁶ cm/s | 250 nM | 82.7 nM |
| COc1cccc2c1CCN(C(=O)[C@H]1CCCCN1C(=O)COc1ccccc1)C2 | 23 µg/mL (≈ 56.3 µM) | > 100000 nM | 2190 nM | 983 nM | 3.13 | 5.46 ×10⁻⁶ cm/s | 473 nM | 219 nM |
| Cc1cc(-c2noc([C@H]3CCCCN3C(=O)COc3ccccc3)n2)n(C)n1 | 30 µg/mL (≈ 78.7 µM) | > 100000 nM | > 100000 nM | > 100000 nM | 3.15 | 4.34 ×10⁻⁶ cm/s | 507 nM | 119 nM |
| N#Cc1cccc(-c2nc([C@H]3CCCCN3C(=O)COc3ccccc3)no2)c1 | < 1 µg/mL | > 100000 nM | > 100000 nM | 15600 nM | 3.17 | 3.83 ×10⁻⁶ cm/s | 412 nM | 84.8 nM |
| O=C(c1cc(-c2noc([C@H]3CCCCN3C(=O)COc3ccccc3)n2)ccn1)N1CCOCC1 | > 523 µg/mL | > 100000 nM | 89700 nM | > 100000 nM | 1.75 | 5.89 ×10⁻⁶ cm/s | 899 nM | 80.4 nM |
| O=C(COc1ccccc1)N1CCCC[C@@H]1c1noc(-c2ccc3snnc3c2)n1 | 1 µg/mL (≈ 2.37 µM) | > 100000 nM | 42600 nM | 2740 nM | > 3 | 2.42 ×10⁻⁶ cm/s | 182 nM | 78.4 nM |

Further lines, results first:

| solubility kinetic [1] | IC50 [2] | IC50 [3] | IC50 [4] | logD [5] | Papp [6] | IC50 [7] | IC50 [8] | SMILES |
| --- | --- | --- | --- | --- | --- | --- | --- | --- |
| 138 µg/mL (≈ 307 µM) | > 100000 nM | 70000 nM | 30300 nM | 1.98 | 0.51 ×10⁻⁶ cm/s | 713 nM | 242 nM | O=C(NCCO)c1cccc(-c2n[nH]c([C@H]3CCCCN3C(=O)COc3ccccc3)n2)c1 |
| 48 µg/mL (≈ 96.4 µM) | 2760 nM | > 100000 nM | > 100000 nM | 2.7 | 1.03 ×10⁻⁶ cm/s | 34.8 nM | 91.1 nM | COc1ccc(Cl)cc1CN1C(=O)C2(CC2)c2ccc(C(=O)Nc3nc(CC(=O)O)cs3)cc21 |
| 26 µg/mL (≈ 61.8 µM) | > 100000 nM | > 100000 nM | 8060 nM | 3 | 3.5 ×10⁻⁶ cm/s | 71.4 nM | 111 nM | CC(=O)Nc1cccc(-n2nnc([C@H]3CCCCN3C(=O)COc3ccccc3)n2)c1 |
| > 675 µg/mL | 9890 nM | > 100000 nM | > 100000 nM | 1.27 | 0.09 ×10⁻⁶ cm/s | 171 nM | 213 nM | COc1ccc(Cl)cc1S(=O)(=O)N1CCOc2ccc(C(=O)Nc3ccn(CC(=O)O)n3)cc21 |
| 44 µg/mL (≈ 105 µM) | 13200 nM | 15000 nM | 69400 nM | 2.51 | 2.43 ×10⁻⁶ cm/s | 475 nM | 35.4 nM | O=C(COc1ccccc1)N1CCCC[C@@H]1c1nc(-c2ccc3[nH]c(=O)[nH]c3c2)no1 |
| 319 µg/mL (≈ 711 µM) | 491 nM | > 100000 nM | > 100000 nM | 0.72 | 0.43 ×10⁻⁶ cm/s | 147 nM | 180 nM | COc1ccc(Cl)cc1Cc1c[nH]c2ccc(C(=O)Nc3ccc(CC(=O)O)cc3)cc12 |
| 60 µg/mL (≈ 149 µM) | 33100 nM | 66800 nM | 15000 nM | 2.26 | 3.03 ×10⁻⁶ cm/s | 234 nM | 29.2 nM | O=C(COc1ccccc1)N1CCCC[C@@H]1c1noc(-c2ccc3[nH]cnc3c2)n1 |
| 26 µg/mL (≈ 53.1 µM) | 439 nM | > 100000 nM | > 100000 nM | 0.25 | 0.95 ×10⁻⁶ cm/s | 54.5 nM | 75.4 nM | Cn1cc(S(=O)(=O)c2cccc(Cl)c2)c2cc(C(=O)Nc3nc(CC(=O)O)cs3)ccc21 |
